Test results reported in patent publication US20220153746A1, “NITROGEN OXIDE-DONATING PDE-5 AND/OR PDE-6 INHIBITOR COMPOUNDS, AND USES THEREOF” (ILDONG PHARMACEUTICAL CO., LTD., priority 2020, published 2022).
Where two headings read alike, the source gives them in different places.

Legend:
human PDE-5A1 = human PDE-5A1 (Homo sapiens, UniProt O76074); assay: Human PDE-5A1 inhibition assay (fluorescence polarization, FAM-cGMP); type: biochemical
human PDE-6C = human PDE-6C (Homo sapiens, UniProt P51160); assay: Human PDE-6C inhibition assay (fluorescence polarization, FAM-cGMP); type: biochemical
Sequence of human PDE-6C (P51160 whole entry): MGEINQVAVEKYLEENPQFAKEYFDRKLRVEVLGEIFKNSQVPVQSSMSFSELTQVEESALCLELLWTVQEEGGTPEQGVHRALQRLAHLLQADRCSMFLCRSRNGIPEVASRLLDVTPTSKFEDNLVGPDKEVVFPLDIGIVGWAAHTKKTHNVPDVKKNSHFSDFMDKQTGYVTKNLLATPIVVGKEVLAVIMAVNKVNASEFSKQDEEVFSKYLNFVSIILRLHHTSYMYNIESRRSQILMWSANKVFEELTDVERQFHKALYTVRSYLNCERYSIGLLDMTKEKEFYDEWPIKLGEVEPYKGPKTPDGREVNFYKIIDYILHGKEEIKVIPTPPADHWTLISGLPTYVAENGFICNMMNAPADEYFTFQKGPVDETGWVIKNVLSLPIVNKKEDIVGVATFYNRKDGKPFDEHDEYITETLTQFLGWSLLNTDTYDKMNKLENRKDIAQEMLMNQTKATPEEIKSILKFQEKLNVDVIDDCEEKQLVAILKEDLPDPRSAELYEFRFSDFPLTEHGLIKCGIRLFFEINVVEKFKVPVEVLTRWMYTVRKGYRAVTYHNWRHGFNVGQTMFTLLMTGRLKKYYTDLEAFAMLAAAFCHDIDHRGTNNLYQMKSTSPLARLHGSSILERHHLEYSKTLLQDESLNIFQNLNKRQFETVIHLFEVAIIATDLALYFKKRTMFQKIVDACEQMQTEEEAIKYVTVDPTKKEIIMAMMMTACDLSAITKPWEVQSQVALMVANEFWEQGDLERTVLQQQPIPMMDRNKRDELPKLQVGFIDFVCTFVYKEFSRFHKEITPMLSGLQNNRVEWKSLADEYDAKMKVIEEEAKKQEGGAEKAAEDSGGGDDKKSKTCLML

SMILES | IC50 (human PDE-5A1; read-out: IC50 (μM) PDE5A1) | IC50 (human PDE-6C; read-out: IC50 (μM) PDE6C) | IC50 (human PDE-5A1) | IC50 (human PDE-6C)
CCCc1nn(C)c2c(=O)[nH]c(-c3cc(S(=O)(=O)N4CC(NCCCCO)C4)ccc3OCC)nc12 [Compound 11, 5-(2-ethoxy-5-((3-((4-hydroxybutyl)amino)azetidin-1-yl)sulfonyl)phenyl)-1-methyl-3-propyl-1,6-dihydro-7H-pyrazolo[4,3-d]pyrimidin-7-one] | 0.01 to 0.1 µM | 0.01 to 0.1 µM |  | 
CCCc1nn(C)c2c(=O)[nH]c(-c3cc(S(=O)(=O)N4CC(N(C)CCO)C4)ccc3OCC)nc12 [Compound 12, 5-(2-ethoxy-5-((3-((2-hydroxyethyl)(methyl)amino)azetidin-1-yl)sulfonyl)phenyl)-1-methyl-3-propyl-1,6-dihydro-7H-pyrazolo[4,3-d]pyrimidin-7-one] | < 0.01 µM | < 0.01 µM |  | 
CCCc1nn(C)c2c(=O)[nH]c(-c3cc(S(=O)(=O)N4CC(N(C)CCCO)C4)ccc3OCC)nc12 [Compound 13, 5-(2-ethoxy-5-((3-((3-hydroxypropyl)(methyl)amino)azetidin-1-yl)sulfonyl)phenyl)-1-methyl-3-propyl-1,6-dihydro-7H-pyrazolo[4,3-d]pyrimidin-7-one] | < 0.01 µM | 0.01 to 0.1 µM |  | 
CCCc1nn(C)c2c(=O)[nH]c(-c3cc(S(=O)(=O)N4CC(N(C)CCCCO)C4)ccc3OCC)nc12 [Compound 14, 5-(2-ethoxy-5-((3-((4-hydroxybutyl)(methyl)amino)azetidin-1-yl)sulfonyl)phenyl)-1-methyl-3-propyl-1,6-dihydro-7H-pyrazolo[4,3-d] pyrimidin-7-one] | < 0.01 µM | < 0.01 µM |  | 
CCCc1nn(C)c2c(=O)[nH]c(-c3cc(S(=O)(=O)N4CC(O[N+](=O)[O-])C4)ccc3OCC)nc12 [Compound 15, 1-((4-ethoxy-3-(1-methyl-7-oxo-3-propyl-6,7-dihydro-1H-pyrazolo[4,3-d]pyrimidin-5-yl)phenyl)sulfonyl) azetidin-3-yl nitrate] | 0.01 to 0.1 µM | 0.01 to 0.1 µM |  | 
CCCc1nn(C)c2c(=O)[nH]c(-c3cc(S(=O)(=O)N4CC(CO[N+](=O)[O-])C4)ccc3OCC)nc12 [Compound 16, (1-((4-ethoxy-3-(1-methyl-7-oxo-3-propyl-6,7-dihydro-1H-pyrazolo[4,3-d]pyrimidin-5-yl)phenyl)sulfonyl)azetidin-3-yl)methyl nitrate] | < 0.01 µM | 0.01 to 0.1 µM |  | 
CCCc1nn(C)c2c(=O)[nH]c(-c3cc(S(=O)(=O)NC4CN(CCO[N+](=O)[O-])C4)ccc3OCC)nc12 [Compound 19, 2-(3-((4-ethoxy-3-(1-methyl-7-oxo-3-propyl-6,7-dihydro-1H-pyrazolo[4,3-d]pyrimidin-5-yl)phenyl)sulfonamido)azetidin-1-yl)ethyl nitrate] | < 0.01 µM | < 0.01 µM |  | 
CCCc1nn(C)c2c(=O)[nH]c(-c3cc(S(=O)(=O)NC4CN(CCCO[N+](=O)[O-])C4)ccc3OCC)nc12 [Compound 20, 3-(3-((4-ethoxy-3-(1-methyl-7-oxo-3-propyl-6,7-dihydro-1H-pyrazolo[4,3-d]pyrimidin-5-yl)phenyl)sulfonamido)azetidin-1-yl)propyl nitrate] | 0.01 to 0.1 µM | < 0.01 µM |  | 
CCCc1nn(C)c2c(=O)[nH]c(-c3cc(S(=O)(=O)N4CC(NCCO[N+](=O)[O-])C4)ccc3OCC)nc12 [Compound 21, 2-((1-((4-ethoxy-3-(1-methyl-7-oxo-3-propyl-6,7-dihydro-1H-pyrazolo[4,3-d]pyrimidin-5-yl)phenyl)sulfonyl)azetidin-3-yl)amino)ethyl nitrate] | < 0.01 µM | < 0.01 µM |  | 
CCCc1nn(C)c2c(=O)[nH]c(-c3cc(S(=O)(=O)N4CC(N(C)CCO[N+](=O)[O-])C4)ccc3OCC)nc12 [Compound 23, 2-((1-((4-ethoxy-3-(1-methyl-7-oxo-3-propyl-6,7-dihydro-1H-pyrazolo[4,3-d]pyrimidin-5-yl)phenyl)sulfonyl)azetidin-3-yl)(methyl)amino)ethyl nitrate] | < 0.01 µM | < 0.01 µM |  | 
CCCc1nn(C)c2c(=O)[nH]c(-c3cc(S(=O)(=O)N4CC(N(C)CCCO[N+](=O)[O-])C4)ccc3OCC)nc12 [Compound 24, 3-((1-((4-ethoxy-3-(1-methyl-7-oxo-3-propyl-6,7-dihydro-1H-pyrazolo[4,3-d]pyrimidin-5-yl)phenyl)sulfonyl)azetidin-3-yl)(methyl)amino)propyl nitrate] | 0.01 to 0.1 µM | < 0.01 µM |  | 
CCCc1nn(C)c2c(=O)[nH]c(-c3cc(S(=O)(=O)N4CC(OCCO)C4)ccc3OCC)nc12 [Compound 25, 5-(2-ethoxy-5-((3-(2-hydroxyethoxy)azetidin-1-yl)sulfonyl)phenyl)-1-methyl-3-propyl-1,6-dihydro-7H-pyrazolo[4,3-d] pyrimidin-7-one] | 0.01 to 0.1 µM | 0.01 to 0.1 µM |  | 
CCCc1nn(C)c2c(=O)[nH]c(-c3cc(S(=O)(=O)N4CC(OCCCO)C4)ccc3OCC)nc12 [Compound 26, 5-(2-ethoxy-5-((3-(3-hydroxypropoxy)azetidin-1-yl)sulfonyl)phenyl)-1-methyl-3-propyl-1,6-dihydro-7H-pyrazolo[4,3-d]pyrimidin-7-one] | 0.01 to 0.1 µM | 0.01 to 0.1 µM |  | 
CCCc1nn(C)c2c(=O)[nH]c(-c3cc(S(=O)(=O)N4CC(OCCCCO)C4)ccc3OCC)nc12 [Compound 27, 5-(2-ethoxy-5-((3-(4-hydroxybutoxy)azetidin-1-yl)sulfonyl)phenyl)-1-methyl-3-propyl-1,6-dihydro-7H-pyrazolo[4,3-d]pyrimidin-7-one] | 0.01 to 0.1 µM | < 0.01 µM |  | 
CCCc1nn(C)c2c(=O)[nH]c(-c3cc(S(=O)(=O)N4CC(CN5CC(CO)C5)C4)ccc3OCC)nc12 [Compound 28, 5-(2-ethoxy-5-((3-((3-(hydroxymethyl)azetidin-1-yl)methyl)azetidin-1-yl)sulfonyl)phenyl)-1-methyl-3-propyl-1,6-dihydro-7H-pyrazolo[4,3-d] pyrimidin-7-one] | 0.01 to 0.1 µM | 0.01 to 0.1 µM |  | 
CCCc1nn(C)c2c(=O)[nH]c(-c3cc(S(=O)(=O)N4CC(CN5CC(CCO)C5)C4)ccc3OCC)nc12 [Compound 29, 5-(2-ethoxy-5-((3-((3-(2-hydroxyethyl)azetidin-1-yl)methyl)azetidin-1-yl)sulfonyl)phenyl)-1-methyl-3-propyl-1,6-dihydro-7H-pyrazolo[4,3-d]pyrimidin-7-one] | 0.01 to 0.1 µM | 0.01 to 0.1 µM |  | 
CCCc1nn(C)c2c(=O)[nH]c(-c3cc(S(=O)(=O)N4CC(N(CCCO)CCCO)C4)ccc3OCC)nc12 [Compound 30, 5-(5-((3-(bis(3-hydroxypropyl)amino)azetidin-1-yl)sulfonyl)-2-ethoxyphenyl)-1-methyl-3-propyl-1,6-dihydro-7H-pyrazolo[4,3-d]pyrimidin-7-one] | < 0.01 µM | < 0.01 µM |  | 
CCCc1nn(C)c2c(=O)[nH]c(-c3cc(S(=O)(=O)N4CC(N5CC(O)C5)C4)ccc3OCC)nc12 [Compound 31, 5-(2-ethoxy-5-((3-hydroxy-[1,3′-biazetidin]-1′-yl)sulfonyl)phenyl)-1-methyl-3-propyl-1,6-dihydro-7H-pyrazolo [4,3-d]pyrimidin-7-one] | 0.01 to 0.1 µM | < 0.01 µM |  | 
CCCc1nn(C)c2c(=O)[nH]c(-c3cc(S(=O)(=O)N4CC(N5CC(CO)C5)C4)ccc3OCC)nc12 [Compound 32, 5-(2-ethoxy-5-((3-(hydroxymethyl)-[1,3′-biazetidin]-1′-yl)sulfonyl)phenyl)-1-methyl-3-propyl-1,6-dihydro-7H-pyrazolo[4,3-d]pyrimidin-7-one] | < 0.01 µM | 0.01 to 0.1 µM |  | 
CCCc1nn(C)c2c(=O)[nH]c(-c3cc(S(=O)(=O)N4CC(N5CC(CCO)C5)C4)ccc3OCC)nc12 [Compound 33, 5-(2-ethoxy-5-((3-(2-hydroxyethyl)-[1,3′-biazetidin]-1′-yl)sulfonyl)phenyl)-1-methyl-3-propyl-1,6-dihydro-7H-pyrazolo[4,3-d]pyrimidin-7-one] | < 0.01 µM | < 0.01 µM |  | 
CCCc1nn(C)c2c(=O)[nH]c(-c3cc(S(=O)(=O)N4CC(OCCO[N+](=O)[O-])C4)ccc3OCC)nc12 [Compound 34, 2-((1-((4-ethoxy-3-(1-methyl-7-oxo-3-propyl-6,7-dihydro-1H-pyrazolo[4,3-d]pyrimidin-5-yl)phenyl)sulfonyl)azetidin-3-yl)oxy)ethyl nitrate] | 0.01 to 0.1 µM | < 0.01 µM |  | 
CCCc1nn(C)c2c(=O)[nH]c(-c3cc(S(=O)(=O)N4CC(OCCCO[N+](=O)[O-])C4)ccc3OCC)nc12 [Compound 35, 3-((1-((4-ethoxy-3-(1-methyl-7-oxo-3-propyl-6,7-dihydro-1H-pyrazolo[4,3-d]pyrimidin-5-yl)phenyl)sulfonyl)azetidin-3-yl)oxy)propyl nitrate] | 0.01 to 0.1 µM | < 0.01 µM |  | 
CCCc1nn(C)c2c(=O)[nH]c(-c3cc(S(=O)(=O)N4CC(OCCCCO[N+](=O)[O-])C4)ccc3OCC)nc12 [Compound 36, 4-((1-((4-ethoxy-3-(1-methyl-7-oxo-3-propyl-6,7-dihydro-1H-pyrazolo[4,3-d]pyrimidin-5-yl)phenyl)sulfonyl)azetidin-3-yl)oxy)butyl nitrate] | 0.01 to 0.1 µM | 0.01 to 0.1 µM |  | 
CCCc1nn(C)c2c(=O)[nH]c(-c3cc(S(=O)(=O)N4CC(CN5CC(CO[N+](=O)[O-])C5)C4)ccc3OCC)nc12 [Compound 37, (1-((1-((4-ethoxy-3-(1-methyl-7-oxo-3-propyl-6,7-dihydro-1H-pyrazolo[4,3-d]pyrimidin-5-yl)phenyl)sulfonyl)azetidin-3-yl)methyl)azetidin-3-yl)methyl nitrate] | 0.01 to 0.1 µM | 0.01 to 0.1 µM |  | 
CCCc1nn(C)c2c(=O)[nH]c(-c3cc(S(=O)(=O)N4CC(N(CCCO[N+](=O)[O-])CCCO[N+](=O)[O-])C4)ccc3OCC)nc12 [Compound 38, ((1-((4-ethoxy-3-(1-methyl-7-oxo-3-propyl-6,7-dihydro-1H-pyrazolo[4,3-d]pyrimidin-5-yl)phenyl)sulfonyl)azetidin-3-yl)azanediyl)bis(propane-3,1-diyl) dinitrate] |  |  | 0.01 to 0.1 µM | 0.01 to 0.1 µM
